Reference: US20240317708A1, “INHIBITORS OF TRANSGLUTAMINASES” (ZEDIRA GMBH, priority 2021, published 2024)

What was measured:
[1] = Log D shake flask method (octanol / PBS pH 7.4, HPLC); format: physicochemical; conditions: octanol/phosphate-buffered saline (PBS); octanol / PBS pH 7.4, shake flask
Description: In order to classify the inventive compounds according to their lipophilicity, Log D values (distribution coefficient) were determined by means of the well-established shake flask method, measuring the partition of a compound between an octanol and phosphate-buffered saline (PBS, pH 7.4) by HPLC.

[2] = biological target: T1, recombinant human transglutaminase 2 (Homo sapiens, UniProt P21980); assay: Transglutaminase assay (dansylcadaverine incorporation into dimethylcasein, DCC-assay); format: biochemical; conditions: recombinant human TG2 10 nM, dansylcadaverine/dimethylcasein, 37° C.
T1 construct: purchased Zedira T022
T1 sequence (P21980 1-687): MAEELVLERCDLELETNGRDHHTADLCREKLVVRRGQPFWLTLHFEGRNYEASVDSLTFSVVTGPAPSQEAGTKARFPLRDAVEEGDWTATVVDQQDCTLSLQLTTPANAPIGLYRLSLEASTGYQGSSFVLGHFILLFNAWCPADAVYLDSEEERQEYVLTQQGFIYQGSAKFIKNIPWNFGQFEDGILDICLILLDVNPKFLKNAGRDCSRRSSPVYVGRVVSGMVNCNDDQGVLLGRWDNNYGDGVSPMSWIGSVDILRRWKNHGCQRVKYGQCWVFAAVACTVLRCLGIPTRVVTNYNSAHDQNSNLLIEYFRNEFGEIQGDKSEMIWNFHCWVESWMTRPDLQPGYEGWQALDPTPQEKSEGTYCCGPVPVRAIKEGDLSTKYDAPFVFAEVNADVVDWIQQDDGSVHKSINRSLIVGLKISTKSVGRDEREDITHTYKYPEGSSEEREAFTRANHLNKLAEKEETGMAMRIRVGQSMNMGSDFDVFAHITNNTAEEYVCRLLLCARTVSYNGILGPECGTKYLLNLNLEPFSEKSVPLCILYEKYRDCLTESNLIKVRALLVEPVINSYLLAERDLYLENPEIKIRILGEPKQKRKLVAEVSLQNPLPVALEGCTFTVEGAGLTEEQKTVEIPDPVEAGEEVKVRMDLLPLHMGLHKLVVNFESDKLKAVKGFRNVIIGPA
Procedure, shortened: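 IC50 derived from fluorescence slope between 20 and 30 min (λex 330 nm, λem 500 nm, 37 °C), expressed relative to a 2% DMSO control. Reaction: 10 nM recombinant human TG2, 4 μM dimethylcasein, 16.7 μM dansylcadaverine, 10 mM CaCl2 and glutathione, pH 8.0.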

[3] = Caco-2 permeability assay (CacoReady kit); format: in vitro ADME; conditions: human
Procedure, shortened: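 Papp values come from Caco-2 barrier studies intended to predict oral bioavailability; the manufacturer's procedure for the ready-made kit was followed.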

Structure (SMILES) | logD [1] | IC50 [2] | Papp [3]
CCN(CC)C(=O)/C=C/CC[C@H](NC(=O)[C@@H]1CN2CCN1CC2)C(=O)Nc1cccn(CC(=O)NC23CC(C2)C3)c1=O [III-139, (S,E)-N7-(1-(2-(bicyclo[1.1.1]pentan-1-ylamino)-2-oxoethyl)-2-oxo-1,2-dihydropyridin-3-yl)-6-((S)-1,4-diazabicyclo[2.2.2]octane-2-carboxamido)-N1,N1-diethylhept-2-enediamide] | < 1 | 250 to 1500 nM | < 1 ×10⁻⁶ cm/s
COC(=O)/C=C/CC[C@H](NC(=O)c1cnc(C(C)C)o1)C(=O)Nc1cccn(CC(=O)NC23CCC(C2)C3)c1=O [III-134, (S,E)-methyl 7-(1-(2-(bicyclo[2.1.1]hexan-1-ylamino)-2-oxoethyl)-2-oxo-1,2-dihydropyridin-3-ylamino)-6-(2-isopropyloxazole-5-carboxamido)-7-oxohept-2-enoate] | 1 to 3 | 25 to 250 nM | 1 to 10 ×10⁻⁶ cm/s
COC(=O)/C=C/CC[C@H](NC(=O)c1snnc1C)C(=O)Nc1cccn(CC(=O)NC2C3CC4CC(C3)CC2C4)c1=O (stereo partly drawn) [III-118, (S,E)-methyl 7-(1-(2-(2-adamantylamino)-2-oxoethyl)-2-oxo-1,2-dihydropyridin-3-ylamino)-6-(4-methyl-1,2,3-thiadiazole-5-carboxamido)-7-oxohept-2-enoate] | 1 to 3 | < 25 nM | < 1 ×10⁻⁶ cm/s
COC(=O)/C=C/CC[C@H](NC(=O)c1oc2ccccc2c1C)C(=O)Nc1cccn(CC(=O)NC2CC3C=CC2C3)c1=O (stereo partly drawn) [III-66, (S,E)-methyl 7-(1-(2-(bicyclo[2.2.1]hept-5-en-2-ylamino)-2-oxoethyl)-2-oxo-1,2-dihydropyridin-3-ylamino)-6-(3-methylbenzofuran-2-carboxamido)-7-oxohept-2-enoate] | 1 to 3 | 25 to 250 nM | 1 to 10 ×10⁻⁶ cm/s
COC(=O)/C=C/CC[C@H](NC(=O)c1oc2ccccc2c1C)C(=O)Nc1cccn(CC(=O)NC23CC4CC(CC(C4)C2)C3)c1=O [III-45, (S,E)-methyl 7-(1-(2-(1-adamantylamino)-2-oxoethyl)-2-oxo-1,2-dihydropyridin-3-ylamino)-6-(3-methylbenzofuran-2-carboxamido)-7-oxohept-2-enoate] | 3 to 5 | 25 to 250 nM | 1 to 10 ×10⁻⁶ cm/s
C=CCNC(=O)/C=C/CC[C@H](NC(=O)c1nccc2cnccc12)C(=O)Nc1cccn(CC(=O)NC23CC(C2)C3)c1=O [III-151, (S,E)-N1-allyl-N7-(1-(2-(bicyclo[1.1.1]pentan-1-ylamino)-2-oxoethyl)-2-oxo-1,2-dihydropyridin-3-yl)-6-(2,6-naphthyridine-1-carboxamido)hept-2-enediamide] | < 1 | 250 to 1500 nM | < 1 ×10⁻⁶ cm/s
COC(=O)/C=C/CC[C@H](NC(=O)c1cc2c(F)c(F)ccc2[nH]1)C(=O)Nc1cccn(CC(=O)NC2C3CC4CC(C3)CC2C4)c1=O (stereo partly drawn) [III-9, (S,E)-methyl 6-(4,5-difluoro-1H-indole-2-carboxamido)-7-(1-(2-(2-adamantylamino)-2-oxoethyl)-2-oxo-1,2-dihydropyridin-3-ylamino)-7-oxohept-2-enoate] | 3 to 5 | < 25 nM | < 1 ×10⁻⁶ cm/s
COC(=O)/C=C/CC[C@H](NC(=O)[C@@H]1CCCCN1)C(=O)Nc1cccn(CC(=O)NC2C3CC4CC(C3)CC2C4)c1=O (stereo partly drawn) [III-29, (S,E)-methyl 7-(1-(2-(2-adamantylamino)-2-oxoethyl)-2-oxo-1,2-dihydropyridin-3-ylamino)-7-oxo-6-((S)-piperidine-2-carboxamido)hept-2-enoate] | 3 to 5 | 25 to 250 nM | < 1 ×10⁻⁶ cm/s
COC(=O)/C=C/CC[C@H](NC(=O)c1oc2ccccc2c1C)C(=O)Nc1cccn(CC(=O)NC2C3CC4CC2CC(F)(C4)C3)c1=O (stereo partly drawn) [III-39, (S,E)-methyl 7-(1-(2-(5-fluoroadamantan-2-amino)-2-oxoethyl)-2-oxo-1,2-dihydropyridin-3-ylamino)-6-(3-methylbenzofuran-2-carboxamido)-7-oxohept-2-enoate] | 3 to 5 | < 25 nM | 1 to 10 ×10⁻⁶ cm/s
